Read-outs that look alike come from different tables or passages of the source.
Molecular target: T1, recombinant human Tie-2 protein (Homo sapiens, UniProt Q02763)
T1 construct: purchased Thermo Fisher Scientific Inc. PV3628
Test: Z′-Lyte FRET enzymatic activity assay of Tie-2 kinase
Type: biochemical
Conditions: for Inhibition (%) @10 μg/ml / inhibition at 10 µg/mL: 10 μg/mL preliminary screening, Table S1; for inhibition at 5 µg/mL: 5 μg/mL, n ≥ 2, read-out: Kinase Inhibition (%) at 5 μg/mL (± SD); for Tie-2 inhibitory activity in words (active / inactive): VS candidates of Strategy 1, preliminary screening at 10 μg/mL

[1] = Z′-Lyte assay, 100 μM ATP, n ≥ 2 per concentration, read-out: IC50 (half-maximal inhibitory concentration), Tie-2 kinase
[2] = in the dose-response figure, read-out: IC50 (dose-dependent inhibitory effect), Tie-2 kinase (converted)

T1 sequence (Q02763 23-1124): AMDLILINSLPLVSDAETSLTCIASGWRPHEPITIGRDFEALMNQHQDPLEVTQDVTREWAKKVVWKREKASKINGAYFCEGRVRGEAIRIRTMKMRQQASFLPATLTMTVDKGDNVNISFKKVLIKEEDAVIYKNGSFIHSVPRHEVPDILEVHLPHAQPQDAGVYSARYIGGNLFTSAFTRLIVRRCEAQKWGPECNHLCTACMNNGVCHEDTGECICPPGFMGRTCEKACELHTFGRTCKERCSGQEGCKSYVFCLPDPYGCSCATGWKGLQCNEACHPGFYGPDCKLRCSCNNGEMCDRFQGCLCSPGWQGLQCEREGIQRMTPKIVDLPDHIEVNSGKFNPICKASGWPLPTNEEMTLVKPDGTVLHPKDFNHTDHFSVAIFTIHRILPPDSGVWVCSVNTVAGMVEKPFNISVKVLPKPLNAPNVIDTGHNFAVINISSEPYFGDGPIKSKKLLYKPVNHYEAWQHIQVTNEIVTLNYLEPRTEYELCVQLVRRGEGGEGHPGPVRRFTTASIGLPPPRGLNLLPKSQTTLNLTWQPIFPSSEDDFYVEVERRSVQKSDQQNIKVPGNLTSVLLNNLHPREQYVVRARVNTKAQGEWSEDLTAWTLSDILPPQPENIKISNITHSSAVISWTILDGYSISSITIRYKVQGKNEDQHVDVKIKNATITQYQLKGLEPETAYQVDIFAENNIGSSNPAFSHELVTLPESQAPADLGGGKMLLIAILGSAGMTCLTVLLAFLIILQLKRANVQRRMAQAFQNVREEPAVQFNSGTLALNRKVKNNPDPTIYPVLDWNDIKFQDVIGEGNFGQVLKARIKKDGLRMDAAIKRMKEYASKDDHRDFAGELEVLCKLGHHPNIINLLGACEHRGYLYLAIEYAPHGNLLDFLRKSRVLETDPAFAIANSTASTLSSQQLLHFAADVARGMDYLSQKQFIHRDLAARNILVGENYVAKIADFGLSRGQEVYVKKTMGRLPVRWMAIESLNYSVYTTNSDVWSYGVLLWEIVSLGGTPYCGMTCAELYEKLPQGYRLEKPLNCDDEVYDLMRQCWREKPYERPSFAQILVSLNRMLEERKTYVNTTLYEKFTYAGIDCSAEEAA
Description: In order to assess the biological inhibitory activity of the VS compounds, Z’-Lyte enzymatic activity assay based on FRET (Fluorescence Resonance Energy Transfer) technology was developed as described above. […] At first, all the compounds obtained from both filtering strategies were preliminary screened for their ability to inhibit Tie-2 kinase activity at the concentration of 10 μg/mL.
The Tie-2 kinase inhibitor (CAS#: 948557-43-5, purity ≥ 97%) was purchased from Merck Calbiochem (Darmstadt, Germany) and used as a positive control inhibitor in bioassays[40]. […] All the purchased screening compounds were firstly dissolved in dimethyl sulfoxide (DMSO) at a stock concentration of 5 mg/ml. The final working concentration of DMSO is less than 1%.
Compounds were tested for their ability to inhibit Tie-2 kinase activity using Z′-Lyte® kinase assay kit (ser/thr 5 peptide) with NUNC 384-well plate. In the first step, the test compounds and ATP solution were firstly prepared at 4 × desired concentration. The mixture of recombinant human Tie-2 protein and non-phosphorylated peptide at 2 × desired concentration was prepared in kinase reaction buffer A consisting of 50 mM HEPES (pH 7.5), 0.01% BRIJ-35, 10 mM MgCl2, 4 mM MnCl2, 1 mM EGTA and 2 mM DTT. Reactions were then carried out in a solution containing 2.5 μL test compounds, 5 μL Tie-2/Tyr 05 peptide mixture (10 ng Tie-2 and 2 μM Tyr 05 peptide) and 2.5 μL ATP (100 μM). Then, the assay plate was shaken for 30 seconds on a plate shaker, and incubated for 1 hour at room temperature (20~25 °C). After sufficient kinase reactions, 5 μL development reagent A was added to each well, and the plate was incubated for another hour. Finally, 5 μL stop reagent was added to terminate the reactions, and the coumarin and fluorescein emission signals (excitation: 400 nm; emission: 445 and 520 nm, respectively) were measured on a fluorescence plate reader (BioTek Synergy 4).

Row | Compound | Inhibition (%) @10 μg/ml [%] | IC50 [1] [µM] | other results
1 | CCOc1cc(-c2nc3sc4c(c3c(=O)[nH]2)CCCC4)ccc1OCc1ccccc1F [TP-C1-14] | 10.67±4.7 |  | 
2 | O=C(CN(Cc1ccc(F)cc1)S(=O)(=O)c1ccc(Cl)cc1)NCc1ccccn1 [TP-C1-27] | 4.93±5.56 |  | 
3 | COc1cc(NC(=S)NC(=O)c2ccc(C)cc2C)ccc1NC(=O)c1ccccc1Cl [TP-C3-21] |  | 2.74 | inhibition at 5 µg/mL: 71.19 ± 0.29%
4 | CCOc1ccc(NC(=O)C(C)Sc2nc3ccccc3c(=O)n2-c2cccc(C)c2)cc1 (racemic) [TP-C1-36] | 3.87±1.8 |  | 
5 | Cc1cc(NC(=S)NC(=O)c2ccccc2C)ccc1NC(=O)c1ccccc1 [TP-C2-7] | 54.53±0.58 |  | 
6 | O=c1cc(-c2ccccc2)c2ccc(OCc3cccc(C(F)(F)F)c3)cc2o1 [TP-C1-18] | 39.7±2.94 |  | Tie-2 inhibitory activity in words (active / inactive): inactive
7 | CCCCc1ccc(NC(=S)C2=C(NCc3ccc4c(c3)OCO4)CC(C)(C)CC2=O)cc1 [TP-C1-31] | 2.9±8.41 |  | Tie-2 inhibitory activity in words (active / inactive): inactive
8 | O=C(CSc1nnc(-c2cccnc2)n1-c1ccccc1)c1ccc(F)cc1 [TP-C1-28] | 71.3±0.7 | 43.6 ± 2.32 | 
9 | O=C(NCc1n[nH]c(=O)c2ccccc12)c1cc2ccccc2oc1=O [TP-C2-32] | 66.52±7.26 |  | 
10 | CCOc1ccc2c(c1)-c1c(ssc1=S)C(C)(C)N2C(=O)CSc1nc(C)cc(O)n1 [TP-C1-17] |  | 4.45 ± 0.36 | inhibition at 10 µg/mL: 89.5 ± 2.93%; IC50 [2]: 4.45 µM
11 | COc1ccc(C(=O)NC(=S)Nc2ccc(NC(=O)c3cccc(C)c3)cc2)cc1OC [TP-C2-9] |  | 1.86 ± 0.18 | inhibition at 10 µg/mL: 81.6 ± 2.85%; IC50 [2]: 1.87 µM
12 | Cl.O=C(O)c1ccc(Cl)c(-c2ccc(CNCC(O)c3ccccc3)o2)c1 (stereo not drawn) [TP-C1-55] | 20.01±0.68 |  | 
13 | Cc1ccc(-c2cc(C(=O)OCC(=O)c3ccccc3)c3cccc(C)c3n2)cc1 [TP-C1-13] | 28.98±1.34 |  | Tie-2 inhibitory activity in words (active / inactive): inactive
14 | CCc1ccc(C(=O)NC(=S)Nc2ccc(NC(=O)c3ccc(Cl)cc3Cl)cc2)cc1 [TP-C3-55] |  | 3.47 | inhibition at 5 µg/mL: 60.22 ± 0.55%
15 | Cc1ccccc1-c1nc(S(=O)(=O)c2ccc(Cl)cc2)c(NCc2cccnc2)o1 [TP-C1-43] | -0.28±1.12 |  | 
16 | Cc1cccc(C(=O)Nc2ccc(-c3cc4ccccc4oc3=O)cc2)c1 [TP-C1-12] | 3.6±13.1 |  | 
17 | O=C(NC(=S)Nc1ccc(NC(=O)c2ccc(Cl)cc2Cl)cc1)c1ccccc1 [TP-C3-1] |  | 1.85 | inhibition at 5 µg/mL: 63 ± 0.86%
18 | CCc1cc2c(-c3ccccc3)cc(=O)oc2cc1OCC(=O)c1ccc(F)cc1 [TP-C2-18] | 43.81±7.48 |  | 
19 | N#Cc1cc2c([nH]c1=O)CC(c1ccccc1)CC2=NNc1ccccc1 (stereo not drawn) [TP-C1-2] | 56.84±0.18 |  | 
20 | CC(=O)c1c(C)cc(C)c(CSc2ccccn2)c1C [TP-C2-22] | 90.2±6.92 | 8.44 ± 0.93 | 

Row | Compound | Inhibition (%) @10 μg/ml [%] | IC50 [1] [µM] | other results
21 | Cc1ccccc1C(=O)Nc1cccc(Oc2ccc3c(c2)C(=O)NC3=O)c1 [TP-C2-26] | 61.34±20.45 |  | 
22 | COc1cccc(OC)c1C(=O)NC(=S)Nc1ccc(NC(=O)c2ccco2)c(Cl)c1 [TP-C1-49] | 49.58±1.56 |  | 
23 | COc1ccc(C(=O)NC(=S)Nc2ccc(NC(=O)c3ccccc3)cc2)cc1[N+](=O)[O-] [TP-C3-15] |  | 13.8 | inhibition at 5 µg/mL: 35.1 ± 0.63%; fold decline in activity compared to TP-C2-9 (from IC50 values): ~ 10 fold
24 | Cc1cc(NC(=S)NC(=O)c2ccc(C)c([N+](=O)[O-])c2)ccc1NC(=O)c1ccccc1 [TP-C3-26] |  | 48.6 | inhibition at 5 µg/mL: 23.11 ± 0.13%
25 | O=C(c1n[nH]c(=O)c2ccccc12)N1CCOC(COc2ccccc2)C1 (stereo not drawn) [TP-C2-59] | 74.19±1.14 |  | 
26 | O=C(NN=Cc1ccc(N2N=C(c3ccccc3)CC2c2ccccc2)cc1)c1ccncc1 (racemic) [TP-C1-6] | 16.08±16.2 |  | Tie-2 inhibitory activity in words (active / inactive): inactive
27 | O=C(O)CC1SC(=NN=Cc2ccc(OC(=O)c3cccc4ccccc34)cc2)NC1=O (racemic) [TP-C2-19] | -280.42±23.11 |  | 
28 | CCCOc1cccc(C(=O)NC(=S)Nc2ccc(NC(=O)c3ccccc3)cc2)c1 [TP-C3-14] |  | 22.7 | inhibition at 5 µg/mL: 43 ± 1.08%
29 | Cc1ccccc1C(=O)NC(=S)Nc1ccc(NC(=O)c2cc3ccccc3o2)cc1 [TP-C2-47] | 67.14±5.68 |  | 
30 | COc1ccc(-c2nnc(SC(CC(=O)NCc3ccco3)c3ccc(C)cc3)[nH]2)cc1 (stereo not drawn) [TP-C2-45] | 65.92±4.36 |  | 
31 | CCOc1ccc(CN(CCc2ccc3c(c2)OCO3)Cc2ccc(C(F)(F)F)cc2)cc1 [TP-C2-6] | 49.69±0.95 |  | 
32 | CCOC(=O)CNS(=O)(=O)c1cc(-c2nnc(Nc3cccc(C)c3)c3ccccc23)ccc1C [TP-C1-16] | 9.52±4.54 |  | 
33 | CC(=O)c1cccc(NC(=O)CSc2nnc(CSCc3ccccc3F)n2C)c1 [TP-C2-49] | 63.31±0.29 |  | 
34 | Cc1cc(NC(=S)NC(=O)c2ccc(Cl)c(Cl)c2)ccc1NC(=O)c1ccccc1 [TP-C3-29] |  | 28.2 | inhibition at 5 µg/mL: 57.95 ± 0.29%
35 | Cc1cccc(C(=O)Nc2ccc(NC(=S)NC(=O)c3ccccc3Cl)cc2)c1 [TP-C3-45] |  | 2.41 | inhibition at 5 µg/mL: 49.3 ± 0.95%
36 | COc1ccc(C2C(C(=O)c3cccs3)=C(O)C(=O)N2CCN(C)C)cc1OC (racemic) [TP-C2-17] | 66.32±3.22 |  | 
37 | O=C(OCC(=O)c1ccccc1Cl)c1ccc2c(c1)-c1ccccc1C2=O [TP-C2-21] | 75.19±7.09 |  | 
38 | COc1ccc(Cl)cc1C(=O)NC(=S)Nc1ccc(NC(=O)c2ccccc2)c(C)c1 [TP-C3-27] |  | 19.8 | inhibition at 5 µg/mL: 47.9 ± 0.05%
39 | CC(=O)Oc1ccccc1NC(=O)c1ccc2c(c1)C(=O)N(CC1CCCO1)C2=O (stereo not drawn) [TP-C1-34] | 6.95±6.26 |  | 
40 | Cc1ccc2nc(-c3ccc(NC(=S)NC(=O)c4oc5ccccc5c4C)cc3)oc2c1 [TP-C2-12] | 85.54±0.14 | 14.6 ± 1.21 | 

Row | Compound | Inhibition (%) @10 μg/ml [%] | IC50 [1] [µM] | other results
41 | COc1ccc(C(CC(=O)c2ccccc2)CC(=O)c2ccccc2)cc1OC [TP-C2-23] | 47.13±8.4 |  | 
42 | COc1ccc(-c2cc3ccccc3oc2=O)cc1NC(=O)c1cccnc1 [TP-C2-31] | 51.93±0.22 |  | 
43 | CCOc1ccc(CN(CCc2ccc3c(c2)OCO3)Cc2ccc(C)cc2)cc1 [TP-C1-9] | 17.49±0.65 |  | 
44 | COc1cc(NC(=S)NC(=O)c2ccccc2OC)ccc1NC(=O)c1cc2ccccc2o1 [TP-C2-11] | 87.61±5.43 | 15.1 ± 0.92 | 
45 | CC1=C(C(=O)Nc2ccc(C)cc2C)C(c2ccc(OCc3ccccc3)cc2)NC(=S)N1 (racemic) [TP-C2-40] | 95.39±0.98 | 4.69 ± 0.37 | 
46 | Cn1c(=O)[nH]c(=O)c2c1nc(NCCCO)n2CC(O)COc1ccccc1 (stereo not drawn) [TP-C2-2] | 51.41±2.9 |  | 
47 | CCOc1cc(C2C(C(=O)OCCc3ccccc3)=C(C)NC3=C2C(=O)CCC3)ccc1O (stereo not drawn) [TP-C2-4] | 69.77±2.75 |  | 
48 | NC(=O)c1ccccc1NC(=O)CSc1nc(O)c(-c2ccccc2)c(=O)[nH]1 [TP-C2-41] | 90.36±1.3 | 6.12 ± 0.81 | 
49 | Cc1ccc(C(=O)CSc2nc3ccccc3c(=O)n2N)o1 [TP-C2-43] | 55.24±1.85 |  | 
50 | O=c1[nH]c(-c2ccc(OCc3ccccc3F)cc2)nc2ccccc12 [TP-C1-40] | 2.81±1.73 |  | 
51 | COc1cc2c(cc1OC)C(c1ccc(OCc3ccccc3)cc1)CC(=O)N2 (racemic) [TP-C2-27] | 55.28±4.04 |  | 
52 | CC1=C(C(=O)Nc2ccc(C)cc2C)C(c2ccc(O)cc2)NC(=S)N1 (stereo not drawn) [TP-C1-21] | 58.96±3.25 |  | 
53 | c1ccc(-c2cc(-c3ccc4c(c3)OCCO4)c(-c3ccccc3)nn2)cc1 [TP-C2-48] | 43.96±2.34 |  | 
54 | Cc1c(C(=O)NC(=S)Nc2ccc(-c3nc4ccccc4s3)cc2)oc2ccccc12 [TP-C2-16] | 84.1±0.44 | 8.83 ± 0.58 | 
55 | O=C1c2ccccc2C(=O)N1CCc1nn2c(-c3cccnc3)nnc2s1 [TP-C1-52] |  | 15.3 ± 0.68 | inhibition at 10 µg/mL: 101 ± 2.04%; fold decreased activity compared to TP-C1-17 and TP-C1-47 (from IC50 values): ~ 3 fold; IC50 [2]: 15.3 µM
56 | CCc1ccc2oc(-c3ccc(NC(=S)NC(=O)c4cc5ccccc5o4)cc3)nc2c1 [TP-C1-15] | -0.66±5.93 |  | 
57 | c1ccc(-c2nnc(CSc3nnc(-c4ccncc4)[nH]3)o2)cc1 [TP-C1-53] | 28.39±0.73 |  | 
58 | COc1ccc(C(=O)NC(=S)Nc2ccc(-c3nc4cc(C)c(C)cc4o3)cc2)cc1OC [TP-C2-8] | 68.53±6.25 |  | 
59 | Cc1cc(S(=O)(=O)Nc2ccc(F)cc2)ccc1OCC(=O)NCc1cccnc1 [TP-C2-53] | 77.43±0.89 |  | 
